Test results taken from US20240300886A1, “ARYLCYCLOHEXYLAMINE DERIVATIVES AND THEIR USE IN THE TREATMENT OF PSYCHIATRIC DISORDERS” (GILGAMESH PHARMACEUTICALS, INC., priority 2021, published 2024).
Where two headings read alike, the source gives them in different places.

Assays:
[1] = Stability in liver microsomes (Example 21), beagle dog; assay type: in vitro ADME; settings: male, pH 7.4, 0.5 mg/mL protein
Experimental: (§1) General Procedure. Briefly, test compounds (final concentration 1 μM) were incubated in duplicate with liver microsomes from male animals of the indicated species (final protein concentration 0.5 mg/mL) in 50 mM sodium phosphate buffer (pH 7.4) with or without NADPH (1 mM). Total incubation volume was 500 μL. At 0, 5, 15, 30, and 60 min, aliquots of 50 μL were withdrawn, quenched with acetonitrile (150 μL), and analyzed for parent compound remaining using a fit-for-purpose LC-MS/MS method. Intrinsic clearance and half-life were calculated. Clearance values below zero were rounded to zero.

[2] = Stability in liver microsomes (Example 21), CD-1 mouse; assay type: in vitro ADME; settings: male, pH 7.4, CD-1 Mouse liver microsomes, 0.5 mg/mL protein
Experimental: as §1

[3] = Stability in liver microsomes (Example 21), cynomolgus monkey; assay type: in vitro ADME; settings: male, pH 7.4, 0.5 mg/mL protein
Experimental: as §1

[4] = Comparative oral pharmacokinetics of 2R, 2S and 2-F-DCK in mice; assay type: in vivo, C57BL/6 mice; settings: 10 mg/kg po; for half-life: read-out: t1/2 (po)
Experimental: Animals. Male C57BL/6 mice were used in these studies. Aminals were randomly assigned to treatment groups and were fasted for 4 h before dosing.
Drugs. Test compounds were dissolved in a vehicle consisting of normal saline, They were then administered orally (po) at a dose of 10 mg/kg (calculated based on freebase) and at a volume of 10 mL/kg body weight.
Sample Collection and Bioanalysis. Blood samples (approximately 60 μL) were collected under light isoflurane anesthesia (Surgivet®) from the retro orbital plexus at 0.08, 0.25, 0.5, 1, 2, 4, 8, and 24 h (4 animals per time point). Immediately after blood collection, plasma was harvested by centrifugation at 4,000 rpm for 10 min at 4° C. and samples were stored at −70±10° C. until bioanalysis. Following blood collection, animals were immediately sacrificed, the abdominal vena-cava was cut open, and the whole body was perfused from the heart using 10 mL of normal saline, and brain samples were collected from all animals. After isolation, brain samples were rinsed three times in ice-cold normal saline (for 5-10 seconds/rinse using ˜5-10 mL normal saline in disposable petri dish for each rinse) and dried on blotting paper. Brain samples were homogenized using ice-cold phosphate-buffered saline (pH 7.4). Total homogenate volume was three times the tissue weight. All homogenates were stored at −70±10° C. until bioanalysis. For bioanalysis, 25 μL aliquots of plasma/brain study samples or spiked plasma/brain calibration standards were added to individual pre-labeled micro-centrifuge tubes followed by 100 μL of an internal standard solution (glipizide, 500 ng/mL in acetonitrile) except for blanks, where 100 μL of acetonitrile was added. Samples were vortexed for 5 minutes and then centrifuged for 10 minutes at 4,000 rpm at 4° C. Following centrifugation, 100 μL of each clear supernatant was transferred to a 96 well plate and analyzed with a fit-for-purpose LC-MS/MS method, with authentic samples of each analyte used for calibration and identification.
Data Analysis. Pharmacokinetic parameters were estimated using the non-compartmental analysis tool of Phoenix® WinNonlin software (Ver 8.0).

[5] = Stability in liver microsomes (Example 21), Gottingen minipig; assay type: in vitro ADME; settings: male, pH 7.4, 0.5 mg/mL protein
Experimental: as §1

[6] = target: recombinant human NMDA receptor (GRIN1/GRIN2B) (Homo sapiens (Human), UniProt Q05586+Q13224); assay: Unblocking kinetics at the NMDA receptor in Xenopus laevis oocytes (two-electrode voltage clamp); assay type: cell-based; settings: compounds applied at 3×IC50, -70 mV, n ≥ 5
Experimental: Compounds 2R, 2S, and 2-(2-fluorophenyl)-2-(methylamino)cyclohexan-1-one 2-F-DCK were tested for unblocking kinetics at the NMDA receptor in Xenopus laevis oocytes expressing recombinant human NMDA receptor (GRIN1/GRIN2B) (Table 22).
Experimental Procedure. Oocytes were harvested from adult Xenopus laevis and incubated in 96 well plates for two to four days prior to recordings. Plasmids containing cDNA encoding for human NMDA receptor subunits GRIN1 and GRIN2B were transcribed using the mMessage mMachine T7 transcription kit (Ambion, USA). The Roboocyte automated injection system was used for injection of cRNA coding for hNMDA receptor subunits at a concentration of 100 ng/μL per subunit. Oocytes were clamped to a holding potential of −70 mV and induced currents after compound application were sampled at 200 Hz at room temperature. Agonist induced currents were recorded with a two-electrode voltage clamp. To determine the unblocking kinetics, glutamate and glycine (3 and 10 μM, respectively) were applied to the oocytes and the current recorded for 90 s. Then, compounds were applied at 3×IC50 for 120 s and the currents recorded.

[7] = target: serotonin transporter (SERT) (Homo sapiens (Human), UniProt P31645); assay: SERT competition radioligand binding ([3H]imipramine); settings: Human recombinant (CHO cells), 2.0 nM [3H]imipramine
Experimental: Disclosed compounds were tested for their binding affinity at the serotonin transporter (SERT) using a competition radioligand binding assay (Eurofins Cerep). Assay conditions are described in Table 16 below.

[8] = Stability in liver microsomes (Example 21), SD rat; assay type: in vitro ADME; settings: male, pH 7.4, 0.5 mg/mL protein
Experimental: as §1

recombinant human NMDA receptor (GRIN1/GRIN2B), sequence (Q13224 whole entry, looked up, other chains not shown): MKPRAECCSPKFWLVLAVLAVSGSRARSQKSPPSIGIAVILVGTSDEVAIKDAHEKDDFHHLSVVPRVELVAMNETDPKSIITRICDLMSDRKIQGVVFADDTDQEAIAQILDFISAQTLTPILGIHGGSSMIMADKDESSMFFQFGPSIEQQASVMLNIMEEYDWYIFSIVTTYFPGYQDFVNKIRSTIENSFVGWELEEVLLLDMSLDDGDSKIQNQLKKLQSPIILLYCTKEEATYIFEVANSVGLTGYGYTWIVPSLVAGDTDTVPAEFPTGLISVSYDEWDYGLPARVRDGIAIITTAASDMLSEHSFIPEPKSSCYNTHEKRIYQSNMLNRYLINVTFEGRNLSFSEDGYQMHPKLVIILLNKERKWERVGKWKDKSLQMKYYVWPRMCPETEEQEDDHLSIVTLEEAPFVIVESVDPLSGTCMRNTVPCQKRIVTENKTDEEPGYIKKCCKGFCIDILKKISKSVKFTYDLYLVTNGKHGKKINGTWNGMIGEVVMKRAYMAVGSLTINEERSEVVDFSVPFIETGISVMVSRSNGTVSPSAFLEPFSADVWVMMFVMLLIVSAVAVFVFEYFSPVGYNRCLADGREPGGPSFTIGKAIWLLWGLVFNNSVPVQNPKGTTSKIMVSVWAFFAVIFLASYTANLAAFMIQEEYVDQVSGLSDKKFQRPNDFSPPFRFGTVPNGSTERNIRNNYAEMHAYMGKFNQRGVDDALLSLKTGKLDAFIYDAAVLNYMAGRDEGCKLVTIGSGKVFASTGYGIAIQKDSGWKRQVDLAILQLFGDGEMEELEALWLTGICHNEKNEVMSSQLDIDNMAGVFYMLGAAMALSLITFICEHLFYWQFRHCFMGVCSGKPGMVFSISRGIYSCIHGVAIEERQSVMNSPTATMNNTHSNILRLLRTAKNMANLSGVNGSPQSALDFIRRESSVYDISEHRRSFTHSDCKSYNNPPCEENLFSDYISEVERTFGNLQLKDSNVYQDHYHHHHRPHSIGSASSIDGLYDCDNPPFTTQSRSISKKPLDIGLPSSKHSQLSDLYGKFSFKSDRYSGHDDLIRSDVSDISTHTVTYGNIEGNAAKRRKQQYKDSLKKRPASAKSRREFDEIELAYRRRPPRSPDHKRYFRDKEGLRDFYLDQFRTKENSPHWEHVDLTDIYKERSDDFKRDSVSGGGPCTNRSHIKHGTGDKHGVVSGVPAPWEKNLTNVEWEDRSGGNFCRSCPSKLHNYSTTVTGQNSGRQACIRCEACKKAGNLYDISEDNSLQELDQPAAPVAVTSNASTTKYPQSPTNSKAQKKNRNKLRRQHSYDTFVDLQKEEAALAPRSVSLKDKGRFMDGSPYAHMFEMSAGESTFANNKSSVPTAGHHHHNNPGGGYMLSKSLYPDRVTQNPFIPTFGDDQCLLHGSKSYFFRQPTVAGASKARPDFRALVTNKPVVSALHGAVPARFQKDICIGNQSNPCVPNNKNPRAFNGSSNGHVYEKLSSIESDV

Compound CNC1(c2ccccc2F)CCCCC1=O (stereo not shown) [Compound 2-F-DCK, 2-(2-fluorophenyl)-2-(methylamino)cyclohexan-1-one, reference compound] has a microsomal CLint at 1 μM [1] of 30 µL/min/mg, a microsomal CLint at 1 μM [2] of 10.9 µL/min/mg and a microsomal CLint at 1 μM [3] of 212 µL/min/mg. The Cmax ([4]; male, C57BL/6, mouse brain) was 1670 ng/g, the half-life ([4]; male, C57BL/6, mouse brain) was 41 min and the Cmax ([4]; male, C57BL/6, mouse plasma) was 1960 ng/mL. For the same compound, the AUC(0-t) ([4]; male, C57BL/6, mouse plasma, read-out: AUC0-last (po) (converted)) was 1150 ng·h/mL, the half-life ([4]; male, C57BL/6, mouse plasma) was 69 min and the “AUC0-last (po)” value ([4]; mouse brain) was 59119 ng·min/g. For the same compound, the microsomal CLint at 1 μM [5] was 56.2 µL/min/mg, the “Unblocking T1/2 ± SEM” value [6] was 1.44 ± 0.21 min and the Ki [7] was 40 µM. The microsomal CLint at 1 μM [8] was 111 µL/min/mg.
